Reference: patent publication US7919508B2, “3-piperidinylisochroman-5-ols as dopamine agonists” (Aventis Pharmaceuticals Inc., priority 2004, dated 2011)
Structures can show the parent of a compound that is named as a salt. Where two headings read alike, the source gives them in different places.

Tests used:
[1] = target: T1, human dopamine D1 receptor (Homo sapiens, UniProt P21728); assay: [3H]-SCH-23390 binding to cloned human dopamine D1 receptors (CHO cell membranes)
T1 construct: A 1.4 Kb Hind III to Xho I fragment was subcloned into the vector pMMLV; expressed in transfected cells; host or cells: CHO cells, clone CHO-D1M#9 (plasmid pHD1MMLV), membranes
T1 sequence (P21728 whole entry, the tested form may be a part): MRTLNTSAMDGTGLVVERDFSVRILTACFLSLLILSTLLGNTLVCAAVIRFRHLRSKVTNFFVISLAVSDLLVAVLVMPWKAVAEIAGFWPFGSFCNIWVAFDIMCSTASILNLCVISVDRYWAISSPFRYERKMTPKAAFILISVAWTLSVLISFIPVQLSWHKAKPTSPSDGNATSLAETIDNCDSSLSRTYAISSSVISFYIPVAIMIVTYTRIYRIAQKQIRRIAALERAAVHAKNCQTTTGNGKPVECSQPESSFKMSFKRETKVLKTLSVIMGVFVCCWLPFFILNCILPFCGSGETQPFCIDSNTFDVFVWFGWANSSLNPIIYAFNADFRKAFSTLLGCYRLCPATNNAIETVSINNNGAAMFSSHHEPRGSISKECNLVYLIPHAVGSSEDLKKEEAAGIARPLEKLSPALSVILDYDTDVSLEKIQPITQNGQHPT

D1 receptor = target: T2, D1 receptor (Homo sapiens, UniProt P21728); assay: D1 Activation Adenylyl Cyclase Assay (cAMP FlashPlate, D1 transfected CHO cell line); type: cell-based
T2 construct: expressed in transfected cells; host or cells: D1 transfected CHO cell line
T2 sequence (P21728 whole entry): as the sequence (P21728 whole entry, the tested form may be a part) above
Outline: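 D1-transfected CHO cells (50,000/well) were exposed to compound 1/10 serial dilutions for 8 min at RT; cAMP measured by competitive 125I-cAMP FlashPlate against a standard curve. Response normalised between basal and saturating D1 agonist; EC50 at half-maximal stimulation, plateau reported as % maximal dopamine stimulation.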

[2] = target: human dopamine D2Long (D2L) receptors (Homo sapiens, UniProt P14416)
Sequence of human dopamine D2Long (D2L) receptors (P14416 whole entry): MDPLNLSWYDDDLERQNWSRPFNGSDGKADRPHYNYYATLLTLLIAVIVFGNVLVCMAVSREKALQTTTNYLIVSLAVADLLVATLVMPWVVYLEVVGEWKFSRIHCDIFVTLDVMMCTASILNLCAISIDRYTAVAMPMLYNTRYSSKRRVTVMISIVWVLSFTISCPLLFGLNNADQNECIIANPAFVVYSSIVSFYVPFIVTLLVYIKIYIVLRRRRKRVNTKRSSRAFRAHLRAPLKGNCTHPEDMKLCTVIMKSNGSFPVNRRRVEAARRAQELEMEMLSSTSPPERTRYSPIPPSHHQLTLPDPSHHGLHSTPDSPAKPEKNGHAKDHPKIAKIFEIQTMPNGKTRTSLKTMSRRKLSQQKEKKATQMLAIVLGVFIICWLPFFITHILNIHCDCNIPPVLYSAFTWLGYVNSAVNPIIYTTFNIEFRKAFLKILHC
Protocol: [N-Methyl-^3H]Spiroperidol Binding to Cloned Human Dopamine D2Long Receptors
This assay measures the in vitro activity of drugs on cloned human dopamine D2Long (D2L) receptors and predicts the direct dopamine-displacing properties of neuropsychiatric, cardiovascular and renal agents at human dopamine D2 receptors.
Cells were maintained in Ham's F12+10% Fetal Bovine Serum+Penicillin/Streptomycin (100 U/ml/100 μg/ml)+G418 (400 μg/ml) medium and were split using Trypsin-EDTA (1 ml/plate, room temperature for ˜2 min. or until cells have lifted off plates). • 2. […] Plates are incubated at 37° C.+5% CO2 for ˜3 days or until cells were confluent.
Cells are harvested by mechanical scraping, washed using PBS collected in 250 ml Corning polypropylene centrifuge tubes, spun down and resuspended in dH2O (final volume per harvest approximately 60 ml). Protein determination is made according to the method of Lowry (Biorad DC Assay Kit). Following the determination of the protein concentration, the protein is diluted into distilled water with 10% DMSO to the appropriate volume based on expression levels (Bmax). The concentrated protein is aliquoted into 1.5 ml screw top eppendorf tubes and placed into a −80° C. freezer.
Assay Requirement: 1 cryovial per two 96 well plates
0.5M Tris Wash Buffer, pH 7.7 • a) 44.4 g Tris HCl • 26.5 g Tris Base • q.s. to 1 Liter (0.5 M Tris buffer, pH 7.7 at 37° C.) • b) make a 1:10 dilution in distilled H2O (0.05 M. Tris buffer, pH 7.7) • 2. Tris Buffer containing physiological salts • a) Stock buffer • NaCl 7.014 g • KCl 0.372 g • CaCl2 0.222 g • MgCl2 0.204 g • q.s. To 100 ml with 0.5 M. Tris Buffer • b) Dilute 1:10 in distilled H2O • This yields 0.05 M. Tris HCl, pH 7.7, containing NaCl (120 mM), KCl (5 mM), CaCl2 (2 mM) and MgCl2 (1 mM) • Optional: add 0.1% ascorbic acid and check pH (in assays with compounds that may oxidize. • c) 1.0% polyethyleneimine stock in 0.5M Tris (reagent 1.a) • Dilute 1:10 in distilled H2O Binding Assay • 750 μl Tissue • 150 μl [^3H]NMSP • 100 μl vehicle (for total binding) or 30 μM (−)
eticlopride (for nonspecific binding) or appropriate drug concentration.
The 96-Well Packard Unifilters GF/B are incubated for >1 h at 25° C. in 0.1% polyethylenimine. The cold tissue is added last and mixed on a orbital shaker for a few seconds and is then incubated at 37° C. for 30 min in a shaking water bath. The assay is stopped by rapid filtration through Packard Unifilter plates. The filter membranes are then washed with 15 ml of ice-cold 0.05 M Tris buffer. The filters are then dried (˜15 min. under a heat lamp or incubated for 15 min. in a 60° C. oven) and a bottom seal is applied. Then 40 μl of Packard Microscint 20 scintillation cocktail are added and a permanent topseal (Type P) is applied and heat sealed. The plates are placed in a Packard Topcount.
Specific binding is defined as the difference between total binding and the binding in the presence of 3 μM S-(−)-eticlopride. Total binding is approximately 10% of the total added ligand. […] The percent inhibition at each drug concentration is the mean of duplicate determinations.

[3] = competitive binding, [3H]-SCH-23390, cloned human D1 in CHO membranes, read-out: D1 affinity Ki
[4] = agonist activity at the D1 receptor, adenylate cyclase assay, D1 transfected CHO cell line, read-out: D1 EC50

Row | Structure (SMILES) | Ki [1, 3] [µM] | EC50 (D1 receptor; [4]) [µM] | Ki [2] [µM] | Ki [1] [µM] | EC50 (D1 receptor) [µM]
1 | Cc1ccc2c(c1O)C[C@@H](C1CCN(S(=O)(=O)CC(F)(F)F)CC1)O[C@H]2CN [Example 157, (1R,3S)-1-Aminomethyl-6-methyl-3-[1-(2,2,2-trifluoro-ethanesulfonyl)-piperidin-4-yl]-isochroman-5-ol hydrochloride] | 0.00207 | 0.46 | 0.434 |  | 
2 | Cc1ccc2c(c1O)C[C@@H](C1CCN(C(=O)Oc3ccc4ccccc4c3)CC1)O[C@H]2CN [Example 123, 4-((1R,3S)-1-Aminomethyl-5-hydroxy-6-methyl-isochroman-3-yl)-piperidine-1-carboxylic acid naphthalen-2-yl ester hydrochloride] |  |  | 0.154 | 0.037 | 0.01
3 | Cc1ccc2c(c1O)C[C@@H](C1CCN(CC(c3ccccc3)c3ccccc3)CC1)O[C@H]2CN [Example 28, (1R,3S)-1-Aminomethyl-3-[1-(2,2-diphenyl-ethyl)-piperidin-4-yl]-6-methyl-isochroman-5-ol dihydrobromide] | 0.082 | 0.131 | 0.18 |  | 
4 | Cc1ccc2c(c1O)C[C@@H](C1CCN(C(=O)OC(C)C)CC1)O[C@H]2CN [Example 111, 4-((1R,3S)-1-Aminomethyl-5-hydroxy-6-methyl-isochroman-3-yl)-piperidine-1-carboxylic acid isopropyl ester hydrochloride] | 0.165 | 0.049 | 0.794 |  | 
5 | Cc1ccc2c(c1O)C[C@@H](C1CCN(Cc3cccc4ccccc34)CC1)O[C@H]2CN [Example 39, (1R,3S)-1-Aminomethyl-6-methyl-3-(1-naphthalen-1-ylmethyl-piperidin-4-yl)-isochroman-5-ol dihydrochloride] | 0.113 | 0.75 | ≥ 10 |  | 
6 | Cc1ccc2c(c1O)C[C@@H](C1CCN(S(=O)(=O)c3ccc4ccccc4c3)CC1)O[C@H]2CN [Example 147, (1R 3S)-1-Aminomethyl-6-methyl-3-[1-(naphthalene-2-sulfonyl)-piperidin-4-yl]-isochroman-5-ol hydrochloride] | 0.108 | 0.394 | 0.623 |  | 
7 | Cc1cccc(CN2CCC([C@@H]3Cc4c(ccc(C)c4O)[C@H](CN)O3)CC2)c1 [Example 65, (1R,3S)-1-Aminomethyl-6-methyl-3-[1-(3-methyl-benzyl)-piperidin-4-yl]-isochroman-5-ol dihydrochloride] | 0.034 | 0.011 | 0.288 |  | 
8 | Cc1ccc2c(c1O)C[C@@H](C1CCN(Cc3ccnc4ccccc34)CC1)O[C@H]2CN [Example 57, (1R,3S)-1-Aminomethyl-6-methyl-3-(1-quinolin-4-ylmethyl-piperidin-4-yl)-isochroman-5-ol dihydrochloride] | 0.0596 | 0.012 | ≥ 10 |  | 
9 | Cc1ccc2c(c1O)C[C@@H](C1CCN(C3Cc4ccccc4C3)CC1)O[C@H]2CN [Example 32, (1R,3S)-1-Aminomethyl-3-(1-indan-2-yl-piperidin-4-yl)-6-methyl-isochroman-5-ol dihydrobromide] | 0.022 | 0.012 | 0.127 |  | 
10 | CCC(CN1CCC([C@@H]2Cc3c(ccc(C)c3O)[C@H](CNC)O2)CC1)c1ccccc1 (stereo partly drawn) [Example 194, (1R,3S)-6-Methyl-1-methylaminomethyl-3-[1-(2-phenylbutyl)-piperidin-4-yl]isochroman-5-ol dihydrochloride] | 0.054 | 0.034 | 0.639 |  | 
11 | Cc1ccc2c(c1O)C[C@@H](C1CCN(C(=O)Oc3ccccc3O)CC1)O[C@H]2CN [Example 121, 4-((1R,3S)-1-Aminomethyl-5-hydroxy-6-methyl-isochroman-3-yl)-piperidine-1-carboxylic acid 2-hydroxy-phenyl ester hydrochloride] |  |  | 0.613 | 0.031 | 0.0025
12 | Cc1ccc2c(c1O)C[C@@H](C1CCN(Cc3cc(C(F)(F)F)cc(C(F)(F)F)c3)CC1)O[C@H]2CN [Example 75, (1R,3S)-1-Aminomethyl-3-[1-(3,5-bis-trifluoromethyl-benzyl)-piperidin-4-yl]-6-methyl-isochroman-5-ol dihydrochloride] | 0.042 | 0.22 | 0.12 |  | 
13 | Cc1ccc2c(c1O)C[C@@H](C1CCN(S(=O)(=O)N3CCc4ccccc4C3)CC1)O[C@H]2CN [Example 167, (1R,3S)-1-Aminomethyl-3-[1-(3,4-dihydro-1H-isoquinoline-2-sulfonyl)-piperidin-yl]-6-methyl-isochroman-5-ol hydrochloride] | 0.074 | 0.077 | 0.528 |  | 
14 | Cc1ccc2c(c1O)C[C@@H](C1CCN(C(=O)Nc3cccc(O)c3)CC1)O[C@H]2CN [Example 126, 4-((1R,3S)-1-Aminomethyl-5-hydroxy-6-methyl-isochroman-3-yl)-piperidine-1-carboxylic acid (3-hydroxy-phenyl)-amide] | 0.021 | 0.0017 | 0.328 |  | 
15 | Cc1ccc2c(c1O)C[C@@H](C1CCN(Cc3ccc(Oc4ccccc4)cc3)CC1)O[C@H]2CN [Example 46, (1R,3S)-1-Aminomethyl-6-methyl-3-[1-(4-phenoxy-benzyl)-piperidin-4-yl]-isochroman-5-ol dihydrochloride] | 0.049 | 0.1 | 0.215 |  | 
16 | COC(=O)N1CCC([C@@H]2Cc3c(ccc(C)c3O)[C@H](CN)O2)CC1 [Example 112, 4-((1R,3S)-1-Aminomethyl-5-hydroxy-6-methyl-isochroman-3-yl)-piperidine-1-carboxylic acid methyl ester hydrochloride] | 0.101 | 0.0006 | ≥ 100 |  | 
17 | Cc1ccc2c(c1O)C[C@@H](C1CCN(CCC(C)C)CC1)O[C@H]2CN [Example 41, (1R,3S)-1-Aminomethyl-6-methyl-3-[1-(3-methyl-butyl)-piperidin-4-yl]-isochroman-5-ol dihydrochloride] | 0.114 | 0.25 | ≥ 10 |  | 
18 | Cc1ccc2c(c1O)C[C@@H](C1CCN(CCNC(=O)c3ccc(F)cc3)CC1)O[C@H]2CN [Example 189, N-{2-[4-((1R,3S)-1-Aminomethyl-5-hydroxy-6-methylisochroman-3-yl)-piperidin-1-yl]ethyl}-4-fluorobenzamide dihydrobromide] | 0.312 | 0.27 | 0.061 |  | 
19 | Cc1ccc2c(c1O)C[C@@H](C1CCN(Cc3ccccc3F)CC1)O[C@H]2CN [Example 36, (1R,3S)-1-Aminomethyl-3-[1-(2-fluoro-benzyl)-piperidin-4-yl]-6-methyl-isochroman-5-ol dihydrobromide] | 0.0428 | 0.062 | 0.749 |  | 
20 | Cc1ccc2c(c1O)C[C@@H](C1CCN(Cc3ccc4ccccc4c3)CC1)O[C@H]2CN [Example 45, (1R,3S)-1-Aminomethyl-6-methyl-3-(1-naphthalen-2-ylmethyl-piperidin-4-yl)-isochroman-5-ol dihydrochloride] | 0.0964 | 0.11 | ≥ 10 |  | 
21 | Cc1ccc2c(c1O)C[C@@H](C1CCN(Cc3ccc4ccccc4n3)CC1)O[C@H]2CN [Example 55, (1R,3S)-1-Aminomethyl-6-methyl-3-(1-quinolin-2-ylmethyl-piperidin-4-yl)-isochroman-5-ol dihydrochloride] | 0.0536 | 0.016 | 0.449 |  | 
22 | Cc1ccc2c(c1O)C[C@@H](C1CCN(CCC(C)NC(=O)c3ccc(Cl)cc3Cl)CC1)O[C@H]2CN (stereo partly drawn) [Example 17, N-{3-[4-((1R,3S)-1-Aminomethyl-5-hydroxy-6-methyl-isochroman-3-yl)-piperidin-1-yl]-1-methyl-propyl}-2,4-dichloro-benzamide dihydrochloride] | 0.138 | 0.018 | ≥ 100 |  | 
23 | Cc1ccc2c(c1O)C[C@@H](C1CCN(Cc3cccc(Cl)c3)CC1)O[C@H]2CN [Example 37, (1R,3S)-1-Aminomethyl-3-[1-(3-chloro-benzyl)-piperidin-4-yl]-6-methyl-isochroman-5-ol dihydrobromide] | 0.0179 | 0.11 | 0.356 |  | 
24 | Cc1ccc2c(c1O)C[C@@H](C1CCN(C(=O)Nc3ccccc3F)CC1)O[C@H]2CN [Example 129, 4-((1R,3S)-1-Aminomethyl-5-hydroxy-6-methyl-isochroman-3-yl)-piperidine-1-carboxylic acid (2-fluoro-phenyl)-amide hydrochloride] | 0.113 | 2 | ≥ 10 |  | 
25 | Cc1ccc2c(c1O)C[C@@H](C1CCN(Cc3cc4ccccc4n3C)CC1)O[C@H]2CN [Example 88, (1R,3S)-1-Aminomethyl-6-methyl-3-[1-(1-methyl-1H-indol-2-ylmethyl)-piperidin-4-yl]-isochroman-5-ol dihydrochloride] | 0.0665 | 0.029 | 0.109 |  | 
26 | Cc1ccc2c(c1O)C[C@@H](C1CCN(CCNC(=O)c3ccccc3)CC1)O[C@H]2CN [Example 191, N-{2-[4-((1R,3S)-1-Aminomethyl-5-hydroxy-6-methylisochroman-3-yl)-piperidin-1-yl]-ethyl}benzamide dihydrobromide] | 0.276 | 0.18 | 0.415 |  | 
27 | Cc1ccc2c(c1O)C[C@@H](C1CCN(C(=O)Nc3cc(C(F)(F)F)ccc3F)CC1)O[C@H]2CN [Example 124, 4-((1R,3S)-1-Aminomethyl-5-hydroxy-6-methyl-isochroman-3-yl)-piperidine-1-carboxylic acid (2-fluoro-5-trifluoromethyl-phenyl)-amide hydrobromide] | 0.486 | 0.02 | ≥ 10 |  | 
